In EP1101496A1, “THERAPEUTIC AGENTS FOR ALLERGIC DISEASES” (FUJI YAKUHIN KOGYO KABUSHIKI KAISHA, priority 1998, dated 2000):

What was measured:
[1] = Mouse body weight gain (side-effect index); assay type: in vivo, mice; details: average ± standard deviation; once a day Days 0-5; Compound No. 8 or 10 60 mg/kg s.c., prednisolone 10 mg/kg i.p.
Method: Next the mice were measured for their body weight.

[2] = Body weight gain in sensitized mice (experimental atopic dermatitis model); assay type: in vivo; details: painted on auricles twice a day; Compound No. 8 50 µg/ear/dose, prednisolone 5 µg/ear/dose; Days 1, 4 and 7; versus solvent control (ethanol)
Method: Experimental atopic dermatitis model mice sensitized in the same manner as in Example 1 were examined for influence on body weight gains.
A solution of a test metalloproteinase inhibitor (Compound No. 8; 50 µg/ear/dose, twice a day) in ethanol or a solution of prednisolone (5 µg/ear/dose, twice a day) in ethanol was administered to mice (5 animals per group) by painting onto both sides of a pair of the auricles, not only one hour prior to elicitation but also 0.25, 3, 4, 5 and 6 days post-elicitation. Each mouse was measured for its body weight not only immediately before the start in painting but also on Days 1, 4 and 7 after the start in painting. Each gain in body weight was calculated and considered to indicate an effect on body weight changes affected by said treatments.

[3] = tested on: infiltration of leukocytes into an air pouch; assay: Allergic inflammation model (air pouch model); assay type: in vivo, rats; details: 10 mg/kg or 30 mg/kg into the air pouch or intraperitoneally; 8 hours after the second challenge; dexamethasone 0.1 mg/kg as comparison
Method: Compound No. 8 was dissolved in physiological saline to make the final concentration 2.5 mg/mL (equal to 10 mg/kg) or 7.5 mg/mL (equal to 30 mg/kg) and administered into an air pouch of animals or intraperitoneally at a dose of 4 mL/kg. Dexamethasone was also dissolved in physiological saline to make the final concentration 25 µg/mL (equal to 0.1 mg/kg) and administered into an air pouch of animals at a dose of 4 mL/kg. Administration into such an air pouch was conducted simultaneously with the second challenge while the intraperitoneal administration was 30 minutes prior to the second challenge. Acetylated bovine serum albumin diazo-coupled with arsanilic acid (ABA-AcBSA) was prepared according to the Ouchi et al. and Tabachnick et al. methods as disclosed in Ouchi et al., "Seibutsu Yakukagaku Jikken Koza, Ensho To Allergy (Inflammation and Allergy) I-2", pp.194 to 206, Hirokawa Publishing Co., Japan and Tabachnick et al., The Journal of Biological Chemistry, 234: 1726- 1730, 1959, and mixed with a Freund's complete adjuvant (Difco) at an equal ratio. The mixture was treated using a connection-type glass syringe to form an emulsion which was used as a sensitizing solution. […] The retrieved exudates were measured by a dye-exclusion method using a haematocytometer and the number of exudated leukocytes were counted.

[4] = tested on: Experimental Bronchial Asthma Model; assay: Experimental bronchial asthma model (ovalbumin-sensitized, airway resistance and asthmatic death); assay type: in vivo, Guinea pigs
Method: Guinea pigs (female, Std:Hartley, 3 weeks old, 200 to 250 g) were individually housed in a plastic chamber (width, 200 mm; depth, 300 mm; height, 167 mm). Aqueous ovalbumin (10 mg/mL) was administered to the guinea pigs once a day for sensitization by 10 min. inhalation with a nebulizer (5B, Nippon Shoji K.K.: flow rate, 6 L/min.) at a dose of 10 mg/mL during 8 cosecutive days. On Day 7 after the final sensitization, the guinea pigs were housed in a plastic chamber and inhaled using a nebulizer with a solution of ovalbumin (10 mg/mL) in physiological saline for 1 min. for elicitation (Matsumoto, T., et al., The Journal of Pharmacology and Experimental Therapeutics, 269: 1236-1244, 1994). The number of animals employed in the experiment was set to the extent there are at least 6 as individuals escaping asthmatic death. A solution of a test metalloproteinase inhibitor (Compound No. 8, 15 mg/kg) in water for injection was administered subcutaneously twice, i.e., 24 hours and 2 hours prior to elicitation. Similarly, the solvent alone was also administered to a negative control group. A suspension of prednisolone (10 mg/kg) in 0.5% aqueous methyl cellulose was administered orally twice, i.e., 24 hours and 2 hours prior to elicitation. Similarly, the solvent alone was also administered to another control group.
The evaluation for efficacies was conducted in terms of airway resistance. For this purpose, an apparatus dedicated to the measurement of airway resistance (K.K. Medical Agent) was employed. Measurement includes setting a guinea pig in a test chamber under a not-anesthetized condition, applying sinusoidal pressure waves of 30 Hz components to a part below the neck of the animal from the back side of the chamber, measuring respiratory waves of 30 Hz components leaking through the mouth (volume of 30 Hz air flow passing through the respiratory tract) in front of the neck, and calculating airway resistance mechanically. Measurement was carried out immediately prior to the first drug treatment (24 hours before elicitation), just prior to elicitation, 10 minutes, 1, 2, 4, 6, and 8 hours post-elicitation.
It was visually observed by a person carrying out said test in terms of the appearance of cyanosis or suffocative death (asthmatic death) due to respiratory obstruction.
Guinea pigs were sensitized with ovalbumin and asthma was induced on Day 7 after final sensitization in the same manner as in Example 18. The number of animals employed in the experiment was set to the extent there are at least 6 as individuals escaping asthmatic death (8 to 11 animals/group). In the same manner as in Example 18, the animals were measured for airway resistance mechanically and each percent change (%) in airway resistance was calculated (each value just prior to elicitation was set as 100%). Each percent amelioration in airway resistance was calculated from the percent changes in airway resistance according to the following formula: Amelioration in Airway Resistance (%) = 1 -[((Percent Change in Airway Resistance after Drug-Administration)-(Value just prior to Challenge (100)))/((Percent Change in Airway Resistance after Solvent -Administration)-(Value just prior to Challenge (100)))]× 100 [formula]
A solution of a test metalloproteinase inhibitor (Compound No. 22: 15 mg/kg or 30 mg/kg) in water for injection or the solvent alone as a negative control was administered to each animal subcutaneously twice, i.e., 24 hours and 2 hours prior to elicitation.

[5] = tested on: mouse scratching behavior; assay: Scratching behavior in experimental atopic dermatitis model; assay type: in vivo, mice; details: for % Inhibition (scratching behavior) / Scratching Behavior (Times) (Average± Deviation): 0.1% in ethanol painted on auricles 1 hour pre-elicitation; for % Inhibition (scratching behavior): 15 to 30 min and 30 to 45 min post-elicitation durations, versus solvent control; for Scratching Behavior (Times) (Average± Deviation): counts for the 15 to 30 min and 30 to 45 min post-elicitation durations
Method: Mice were passively sensitized with anti-DNP IgE Ab and then elicited by painting 0.1% DNFB in ethanol onto both sides of a pair of mouse auricles […] in the same manner as in Example 1. Five minutes pre-elicitation, an ethanolic solution containing 0.3% of Compound No. 20 was painted onto both sides of a pair of the auricles at a dose of 10 µL per each side. Tacrolimus (Fujisawa Pharmaceutical Co., Ltd.) was used as a positive control drug. An ethanolic solution containing 0.1% of the positive control drug was prepared just prior to use and then painted onto the mouse auricles 1 hour pre-elicitation in the same manner as for the painting of Compound No. 20. A negative control group was painted with a solvent alone (6 animals per group).
From the point immediately after elicitation, each mouse was housed individually in a comparted acrylic cage and observed by taking a video without any attendant up to 2 hours after elicitation (Inagaki, N., et al., The European Journal of Pharmacology, 367: 361-371, 1999). After finishing such a video recording, scratching behavior by mouse hind paws to a pair of ears was visually examined for each mouse and integrated scratching behaviors were counted during 6 post-elicitation durations for 20 minutes each; 0 to 20 min., 20 to 40 min., 40 to 60 min., 60 to 80 min., 80 to 100 min., and 100 to 120 min. In this experiment, an action from a start to scratch the ear by the mouse hind paw to a release of the hind paw is counted as one scratching behavior.
Mice were passively sensitized with anti-DNP IgE Ab and then elicited with 0.1% DNFB in ethanol 24 hours post-sensitization in the same manner as in Example 12. One hour pre-elicitation, a 0.1% solution of a metalloproteinase inhibitor (Compound No. 20 or 21) in ethanol was painted onto both sides of a pair of the auricles at a dose of 10 µL per each side. A negative control group was painted with a solvent alone. From the point immediately after the elicitation, each mouse was housed individually in a comparted cage and observed by taking a video without any attendant up to 2 hours thereafter (3 animals per group). In the same manner as in Example 12, scratching behaviors by mouse hind paws were counted for every 15 minutes: 8 post-elicitation durations; 0 to 15 min., 15 to 30 min., 30 to 45 min., 45 to 60 min., 60 to 75 min., 75 to 90 min., 90 to 105 min., and 105 to 120 min.

[6] = suffocative death due to cyanosis just after elicitation, Compound No. 8 15 mg/kg s.c., prednisolone 10 mg/kg orally, 24 and 2 hours prior to elicitation

CNC(=O)[C@H](Cc1ccc(NC(=N)N)cc1)NC(=O)[C@H](CC(C)C)C(CCCc1ccccc1)C(=O)NO (single isomer, unassigned) [Compound No. 8, N-[4-(N-hydroxyamino)-2(R)-isobutyl-3(R or S)-(3-phenyltrimethylene)succinyl]-L-4'-guanidophenylalanine-N-methylamide 1 acetate]
Body Weight Gain, Day 5 [1]: 0.57± 0.61 | Body Weight Gain, Day 7 [1]: 0.77± 0.55 | Body Weight Gain, Day 10 [1]: 1.20± 0.26 | gain in body weight (FIG. 9) [2]: almost equivalent to that in the solvent control group | infiltration of leukocytes into an air pouch (FIG. 13) [3]: significantly inhibited | airway resistance (FIG. 11) ([4]; 15 mg/kg s.c. 24 hours and 2 hours prior to elicitation, IAR 1 hour and LAR 6 hours post-elicitation): significant reduction of the increased airway resistance | % Mortality [4, 6]: 0.0% | (Dead Animals)/(Tested Animals) [4, 6]: 0/10

CNC(=O)[C@H](Cc1ccc(NC(=N)N)cc1)NC(=O)[C@H](CC(C)C)C(CCCc1ccccc1)C(=O)NO.Cl (single isomer, unassigned) [Compound No. 20, N-[4-(N-hydroxyamino)-2(R)-isobutyl-3(R or S)-(3-phenyltrimethylene)succinyl]-L-4'-guanidophenylalanine-N-methylamide 1 hydrochloride]
% Inhibition (scratching behavior) [5]: 40.7% | Scratching Behavior (Times) (Average± Deviation) [5]: 124.0 ± 43.6 Times | inhibitory efficacy on scratching in the 20 to 40 min post-elicitation duration (FIG. 8) ([5]; 0.3% Compound No. 20 versus 0.1% tacrolimus, painted on auricles): higher than that of tacrolimus | efficacy on mouse scratching behavior (FIG. 8) ([5]; 0.3% ethanolic solution painted on auricles 10 µL per side 5 minutes pre-elicitation, observed up to 2 hours): apparently inhibits mouse scratching behavior

CNC(=O)[C@H](Cc1ccc(N=C(N)N)cc1)NC(=O)[C@@H](CC(=O)NO)CC(C)C.O=S(=O)(O)O [Compound No. 21, N-[4-(N-hydroxyamino)-2(R)-isobutylsuccinyl]-L-4'-guanidophenylalanine-N-methylamide 1 sulfate]
% Inhibition (scratching behavior) [5]: 54.1% | Scratching Behavior (Times) (Average± Deviation) [5]: 96.0 ± 32.6 Times
